According to patent US6706663B2, “Herbicidal 3-heterocyclic substituted benzisothiazole and benzisoxazole compounds” (Wyeth, priority 2000, dated 2004):

Tests used:
[1] = system: ABUTH (Abutilon theophrasti); assay: Postemergence herbicidal evaluation; format: in vivo, Medic.; conditions: postemergence
Protocol: (§1) In the tests, seedling plants are grown in jiffy flats for about two weeks. […] After spraying, the plants are placed on greenhouse benches and are cared for in accordance with conventional greenhouse procedures. From four to five weeks after treatment, the seedling plants are examined and rated according to the rating system set forth below. Where more than one test is involved for a given compound, the data are averaged.
(§2) Results of herbicide evaluation are expressed on a rating scale (0-9). The scale is based upon a visual observation of plant stand, vigor, malformation, size, chlorosis and overall plant appearance as compared with a control.

[2] = system: AMBEL (Ambrosia artemisifolia); assay: Postemergence herbicidal evaluation; format: in vivo, L.; conditions: postemergence
Protocol: as §1, §2

[3] = system: CASOB (Cassia obtusifolia); assay: Postemergence herbicidal evaluation; format: in vivo, L.; conditions: postemergence
Protocol: as §1, §2

[4] = system: CHEAL (Chenopodium album); assay: Postemergence herbicidal evaluation; format: in vivo, L.; conditions: postemergence
Protocol: as §1, §2

GALAP (Galium aparine) [5] = assay: Postemergence herbicidal evaluation; format: in vivo; conditions: postemergence
Protocol: as §1, §2

[6] = system: IPOHE (Ipomoea hederacea); assay: Postemergence herbicidal evaluation; format: in vivo, (L.) Jacq.; conditions: postemergence
Protocol: as §1, §2

[7] = system: ECHCG (Echinochloa crus-galli); assay: Postemergence herbicidal evaluation; format: in vivo, (L.) Beau; conditions: postemergence
Protocol: as §1, §2

SETVI (Setaria viridis) [8] = assay: Postemergence herbicidal evaluation; format: in vivo, (L.) Beau; conditions: postemergence
Protocol: In the tests, seedling plants are grown in jiffy flats for about two weeks. The test compounds are dispersed in 50/50 acetone/water mixtures containing 0.5% TWEEN® 20, a polyoxyethylene sorbitan monolaurate surfactant of Atlas Chemical Industries, in sufficient quantities to provide the equivalent of about 0.0040 kg to 1.000 kg per hectare of active compound when applied to the plants through a spray nozzle operating at 40 psi for a predetermined time. After spraying, the plants are placed on greenhouse benches and are cared for in accordance with conventional greenhouse procedures. From four to five weeks after treatment, the seedling plants are examined and rated according to the rating system set forth below. Where more than one test is involved for a given compound, the data are averaged.
as §2

[9] = system: GLXMAW (Soybean, Williams); assay: Postemergence herbicidal evaluation; format: in vivo, Glycine max, (L.) Merr. cv Williams; conditions: postemergence
Protocol: as §1, §2

ORYSAT (Rice, Tebonnet) [10] = assay: Postemergence herbicidal evaluation; format: in vivo, Oryza sativa, (L.) Tebonnet; conditions: postemergence
Protocol: as §1, §2

[11] = system: TRZAWR (Wheat, Winter, cv Riband); assay: Postemergence herbicidal evaluation; format: in vivo, Triticum aestivum; conditions: postemergence
Protocol: as §1, §2

ZEAMX (Corn, Field) [12] = assay: Postemergence herbicidal evaluation; format: in vivo, Zea mays, L.; conditions: postemergence
Protocol: as §1, §2

[13] = system: ABUTH (Abutilon theophrasti); assay: Preemergence herbicidal evaluation; format: in vivo, Medic.; conditions: Rate 0.0620 kg/ha; rated 4-5 weeks after treatment
From the text: as §2
(§3) The preemergence herbicidal activity of the test compounds of the present invention is exemplified by the following tests in which the seeds of a variety of monocotyledonous and dicotyledonous plants are separately mixed with potting soil and planted on top of approximately one inch of soil in separate pint cups. […] The treated cups are then placed on greenhouse benches, watered and cared for in accordance with conventional greenhouse procedures. From four to five weeks after treatment, the tests are terminated and each cup is examined and rated according to the rating system provided in Example 87. The plant species used and the compounds evaluated are the same as those shown in Example 87.

[14] = system: AMBEL (Ambrosia artemisifolia); assay: Preemergence herbicidal evaluation; format: in vivo, L.; conditions: Rate 0.0620 kg/ha; rated 4-5 weeks after treatment
From the text: as §2, §3

[15] = system: CASOB (Cassia obtusifolia); assay: Preemergence herbicidal evaluation; format: in vivo, L.; conditions: Rate 0.0620 kg/ha; rated 4-5 weeks after treatment
From the text: as §2, §3

[16] = system: CHEAL (Chenopodium album); assay: Preemergence herbicidal evaluation; format: in vivo, L.; conditions: Rate 0.0620 kg/ha; rated 4-5 weeks after treatment
From the text: as §2, §3

GALAP (Galium aparine) [17] = assay: Preemergence herbicidal evaluation; format: in vivo; conditions: Rate 0.0620 kg/ha; rated 4-5 weeks after treatment
From the text: as §2, §3

[18] = system: IPOHE (Ipomoea hederacea); assay: Preemergence herbicidal evaluation; format: in vivo, (L.) Jacq.; conditions: Rate 0.0620 kg/ha; rated 4-5 weeks after treatment
From the text: as §2, §3

[19] = system: ECHCG (Echinochloa crus-galli); assay: Preemergence herbicidal evaluation; format: in vivo, (L.) Beau; conditions: Rate 0.0620 kg/ha; rated 4-5 weeks after treatment
From the text: as §2, §3

SETVI (Setaria viridis) [20] = assay: Preemergence herbicidal evaluation; format: in vivo, (L.) Beau; conditions: Rate 0.0620 kg/ha; rated 4-5 weeks after treatment
From the text: as §2, §3

[21] = system: GLXMAW (Soybean, Williams); assay: Preemergence herbicidal evaluation; format: in vivo, Glycine max, (L.) Merr. cv Williams; conditions: Rate 0.0620 kg/ha; rated 4-5 weeks after treatment
From the text: as §2, §3

ORYSAT (Rice, Tebonnet) [22] = assay: Preemergence herbicidal evaluation; format: in vivo, Oryza sativa, (L.) Tebonnet; conditions: Rate 0.0620 kg/ha; rated 4-5 weeks after treatment
From the text: as §2, §3

[23] = system: TRZAWR (Wheat, Winter, cv Riband); assay: Preemergence herbicidal evaluation; format: in vivo, Triticum aestivum; conditions: Rate 0.0620 kg/ha; rated 4-5 weeks after treatment
From the text: as §2, §3

ZEAMX (Corn, Field) [24] = assay: Preemergence herbicidal evaluation; format: in vivo, Zea mays, L.; conditions: Rate 0.0620 kg/ha; rated 4-5 weeks after treatment
From the text: as §2, §3

[25] = system: ECHORC (Echinochloa oryzoides); assay: Flooded paddy, preemergence weed control; format: in vivo, Echinochloa oryzoides (Ard.) Fritsch.; conditions: rated 3-4 weeks after treatment, 0-9 rating scale
Protocol: as §2
(§4) Preemergence herbicidal activity under flooded paddy conditions is determined as follows: plant seeds or propagating organs are planted in the top 0.5 cm of silt loam soil in 32 oz. plastic containers with a diameter of 10.5 cm and no drainage holes. Water is added to these containers and maintained at 1.5 to 3 cm above the soil surface for the duration of the experiment. […] The treated containers are placed on greenhouse benches and cared for in accordance with conventional greenhouse procedures.

CYPIR (Cyperus iria) = assay: Flooded paddy, preemergence weed control; format: in vivo; conditions: rated 3-4 weeks after treatment, 0-9 rating scale
Protocol: as §2, §4

[26] = system: MOOVA (Monochoria vaginalis); assay: Flooded paddy, preemergence weed control; format: in vivo, Presl.; conditions: rated 3-4 weeks after treatment, 0-9 rating scale
Protocol: as §2, §4

[27] = system: SAGPY (Sagittaria pygmaea); assay: Flooded paddy, preemergence weed control; format: in vivo, L.; conditions: rated 3-4 weeks after treatment, 0-9 rating scale
Protocol: as §2, §4

## C[C@@H]1OC(c2nsc3cc(F)c(-n4c(=O)cc(C(F)(F)F)n(C)c4=O)cc23)O[C@@H]1C (stereo partly drawn) [Compound 66, 3-[3-[(4R,5S-)-4,5-dimethyl-1,3-dioxolan-2-yl]-6-fluoro-1,2-benzisothiazol-5-yl]-1-methyl-6-(trifluoromethyl)uracil]
[1]; rate 0.0320 kg/ha
  ABUTH herbicidal rating: 9.0
[1]; rate 0.0620 kg/ha
  ABUTH herbicidal rating: 9.0
[2]; rate 0.0320 kg/ha
  AMBEL herbicidal rating: 9.0
[2]; rate 0.0620 kg/ha
  AMBEL herbicidal rating: 9.0
[3]; rate 0.0320 kg/ha
  CASOB herbicidal rating: 8.0
[3]; rate 0.0620 kg/ha
  CASOB herbicidal rating: 9.0
[4]; rate 0.0320 kg/ha
  CHEAL herbicidal rating: 9.0
[4]; rate 0.0620 kg/ha
  CHEAL herbicidal rating: 9.0
GALAP (Galium aparine) [5]; rate 0.0320 kg/ha
  GALAP herbicidal rating: 9.0
GALAP (Galium aparine) [5]; rate 0.0620 kg/ha
  GALAP herbicidal rating: 9.0
[6]; rate 0.0320 kg/ha
  IPOHE herbicidal rating: 9.0
[6]; rate 0.0620 kg/ha
  IPOHE herbicidal rating: 9.0
[7]; rate 0.0320 kg/ha
  ECHCG herbicidal rating: 2.0
[7]; rate 0.0620 kg/ha
  ECHCG herbicidal rating: 5.0
SETVI (Setaria viridis) [8]; rate 0.0320 kg/ha
  SETVI herbicidal rating: 8.0
SETVI (Setaria viridis) [8]; rate 0.0620 kg/ha
  SETVI herbicidal rating: 9.0
[9]; rate 0.0320 kg/ha
  GLXMAW herbicidal rating: 9.0
[9]; rate 0.0620 kg/ha
  GLXMAW herbicidal rating: 9.0
ORYSAT (Rice, Tebonnet) [10]; rate 0.0320 kg/ha
  ORYSAT herbicidal rating: 4.5
ORYSAT (Rice, Tebonnet) [10]; rate 0.0620 kg/ha
  ORYSAT herbicidal rating: 4.5
[11]; rate 0.0320 kg/ha
  TRZAWR herbicidal rating: 4.0
[11]; rate 0.0620 kg/ha
  TRZAWR herbicidal rating: 4.0
ZEAMX (Corn, Field) [12]; rate 0.0320 kg/ha
  ZEAMX herbicidal rating: 5.5
ZEAMX (Corn, Field) [12]; rate 0.0620 kg/ha
  ZEAMX herbicidal rating: 5.5
[13]
  Preemergence herbicidal rating ABUTH: 9.0
[14]
  Preemergence herbicidal rating AMBEL: 9.0
[15]
  Preemergence herbicidal rating CASOB: 6.0
[16]
  Preemergence herbicidal rating CHEAL: 9.0
GALAP (Galium aparine) [17]
  Preemergence herbicidal rating GALAP: 7.0
[18]
  Preemergence herbicidal rating IPOHE: 7.5
[19]
  Preemergence herbicidal rating ECHCG: 9.0
SETVI (Setaria viridis) [20]
  Preemergence herbicidal rating SETVI: 9.0
[21]
  Preemergence herbicidal rating GLXMAW: 9.0
ORYSAT (Rice, Tebonnet) [22]
  Preemergence herbicidal rating ORYSAT: 8.5
[23]
  Preemergence herbicidal rating TRZAWR: 8.0
ZEAMX (Corn, Field) [24]
  Preemergence herbicidal rating ZEAMX: 8.0
[25]; rate 0.0080 kg/ha
  herbicidal rating, ECHORC: 4.5
[25]; rate 0.0320 kg/ha
  herbicidal rating, ECHORC: 9.0
[25]; rate 0.1250 kg/ha
  herbicidal rating, ECHORC: 9.0
CYPIR (Cyperus iria); rate 0.0080 kg/ha
  herbicidal rating, CYPIR: 2.5
CYPIR (Cyperus iria); rate 0.0320 kg/ha
  herbicidal rating, CYPIR: 6.0
CYPIR (Cyperus iria); rate 0.1250 kg/ha
  herbicidal rating, CYPIR: 9.0
[26]; rate 0.0080 kg/ha
  herbicidal rating, MOOVA: 0.0
[26]; rate 0.0320 kg/ha
  herbicidal rating, MOOVA: 9.0
[26]; rate 0.1250 kg/ha
  herbicidal rating, MOOVA: 9.0
[27]; rate 0.0080 kg/ha
  herbicidal rating, SAGPY: 2.5
[27]; rate 0.0320 kg/ha
  herbicidal rating, SAGPY: 9.0
[27]; rate 0.1250 kg/ha
  herbicidal rating, SAGPY: 9.0
